Data published in patent publication US6677347B2, “Sulfonamido ether substituted imidazoquinolines” (3M Innovative Properties Company, priority 2000, dated 2004).

Test system: not given
Assay: not given
Settings: not given

| melting point | Compound |
| --- | --- |
| 114 to 117 °C | COCCc1nc2c(N)nc3ccccc3c2n1CCOCCNS(C)(=O)=O [Example 1, N-(2-{2-[4-amino-2-(2-methoxyethyl)-1H-imidazo[4,5-c]quinolin-1-yl]ethoxy}ethyl)methanesulfonamide] |
| 151 to 153 °C | COCCc1nc2c(N)nc3c(c2n1CCOCCNS(C)(=O)=O)CCCC3 [Example 2, N-(2-{2-[4-amino-2-(2-methoxyethyl)-6,7,8,9-tetrahydro-1H-imidazo[4,5-c]quinolin-1-yl]ethoxy}ethyl)methanesulfonamide] |
| 145 to 146.5 °C | COCCc1nc2c(N)nc3ccccc3c2n1CCOCCN(C)S(C)(=O)=O [Example 3, N-(2-{2-[4-amino-2-(2-methoxyethyl)-1H-imidazo[4,5-c]quinolin-1-yl]ethoxy}ethyl)-N-methylmethanesulfonamide] |
| 115.3 to 117.8 °C | COCCc1nc2c(N)nc3c(c2n1CCOCCN(C)S(C)(=O)=O)CCCC3 [Example 4, N-(2-{2-[4-amino-2-(2-methoxyethyl)-6,7,8,9-tetrahydro-1H-imidazo[4,5-c]quinolin-1-yl]ethoxy}ethyl)-N-methylmethanesulfonamide] |
| 152 to 154 °C | CCCCc1nc2c(N)nc3ccccc3c2n1CCOCCN1CCCS1(=O)=O [Example 5, 2-Butyl-1-{2-[2-(1,1-dioxidoisothiazolidin-2-yl)ethoxy]ethyl}-1H-imidazo[4,5-c]quinolin-4-amine] |
| 155 to 157 °C | Cc1nc2c(N)nc3ccccc3c2n1CCOCCN [Example 51, 1-[2-(2-aminoethoxy)ethyl]-2-methyl-1H-imidazo[4,5-c]quinolin-4-amine] |
| 144 to 146 °C | CCc1nc2c(N)nc3ccccc3c2n1CCOCCN [Example 52, 1-[2-(2-aminoethoxy)ethyl]-2-ethyl-1H-imidazo[4,5-c]quinolin-4-amine] |
| 152 to 155 °C | Cc1nc2c(N)nc3ccccc3c2n1CCOCCNS(C)(=O)=O [Example 54, N-{2-[2-(4-amino-2-methyl-1H-imidazo[4,5-c]quinolin-1-yl)ethoxy]ethyl}methanesulfonamide] |
| 172 to 175 °C | Cc1nc2c(N)nc3ccccc3c2n1CCOCCNS(=O)(=O)C(C)C [Example 55, N-{2-[2-(4-amino-2-methyl-1H-imidazo[4,5-c]quinolin-1-yl)ethoxy]ethyl}propane-2-sulfonamide] |
| 169 to 171 °C | CCc1nc2c(N)nc3ccccc3c2n1CCOCCNS(C)(=O)=O [Example 56, N-{2-[2-(4-amino-2-ethyl-1H-imidazo[4,5-c]quinolin-1-yl)ethoxy]ethyl}methanesulfonamide] |
| 152 to 155 °C | CCOCc1nc2c(N)nc3ccccc3c2n1CCOCCNS(C)(=O)=O [Example 57, N-(2-{2-[4-amino-2-(ethoxymethyl)-1H-imidazo[4,5-c]quinolin-1-yl]ethoxy}ethyl)methanesulfonamide] |
| 139 to 142 °C | CCOCc1nc2c(N)nc3ccccc3c2n1CCOCCNS(=O)(=O)C(C)C [Example 58, N-(2-{2-[4-amino-2-(ethoxymethyl)-1H-imidazo[4,5-c]quinolin-1-yl]ethoxy}ethyl)propane-2-sulfonamide] |
| 129.7 to 130.2 °C | COCCc1nc2c(N)nc3ccccc3c2n1CCOCCN(C)S(=O)(=O)C(C)C [Example 59, N-(2-{2-[4-amino-2-(2-methoxyethyl)-1H-imidazo[4,5-c]quinolin-1-yl]ethoxy}ethyl)-N-methylpropane-2-sulfonamide] |
| 186 to 187 °C | Cc1nc2c(N)nc3ccccc3c2n1CCOCCN1CCCS1(=O)=O [Example 60, 1-{2-[2-(1,1-Dioxidoisothiazolidin-2-yl)ethoxy]ethyl}-2-methyl-1H-imidazo[4,5-c]quinolin-4-amine] |

Test system: interferon (α)
Assay: Cytokine Induction in Human Cells: interferon (α) by ELISA
Assay type: cell-based
Settings: human PBMC, 18 to 24 hours incubation, lowest concentration found to induce interferon
Description: (§1) An in vitro human blood cell system is used to assess cytokine induction. Activity is based on the measurement of interferon and tumor necrosis factor (α) (IFN and TNF, respectively) secreted into culture media as described by Testerman et. al. In “Cytokine Induction by the Immunomodulators Imiquimod and S-27609”, Journal of Leukocyte Biology, 58, 365-372 (September, 1995).
(§2) Whole blood from healthy human donors is collected by venipuncture into EDTA vacutainer tubes. Peripheral blood mononuclear cells (PBMC) are separated from whole blood by density gradient centrifugation using Histopaque®-1077. Blood is diluted 1:1 with Dulbecco's Phosphate Buffered Saline (DPBS) or Hank's Balanced Salts Solution (HBSS). The PBMC layer is collected and washed twice with DPBS or HBSS and resuspended at 4×10^6 cells/mL in RPMI complete. The PBMC suspension is added to 48 well flat bottom sterile tissue culture plates (Costar, Cambridge, Mass. or Becton Dickinson Labware, Lincoln Park, N.J.) containing an equal volume of RPMI complete media containing test compound.
(§3) The compounds are solubilized in dimethyl sulfoxide (DMSO). The DMSO concentration should not exceed a final concentration of 1% for addition to the culture wells. The compounds are generally tested at concentrations ranging from 30-0.014 μM.
(§4) The solution of test compound is added at 60 μM to the first well containing RPMI complete and serial 3 fold dilutions are made in the wells. The PBMC suspension is then added to the wells in an equal volume, bringing the test compound concentrations to the desired range (30-0.014 μM). The final concentration of PBMC suspension is 2×10^6 cells/mL. The plates are covered with sterile plastic lids, mixed gently and then incubated for 18 to 24 hours at 37° C. in a 5% carbon dioxide atmosphere.
(§5) Following incubation the plates are centrifuged for 10 minutes at 1000 rpm (˜200×g) at 4° C. The cell-free culture supernatant is removed with a sterile polypropylene pipet and transferred to sterile polypropylene tubes. Samples are maintained at −30 to −70° C. until analysis. The samples are analyzed for interferon (α) by ELISA and for tumor necrosis factor (α) by ELISA or IGEN Assay
Interferon (α) concentration is determined by ELISA using a Human Multi-Species kit from PBL Biomedical Laboratories, New Brunswick, N.J. Results are expressed in pg/mL.
(§6) The table below lists the lowest concentration found to induce interferon and the lowest concentration found to induce tumor necrosis factor for each compound.

| Compound | minimal effective concentration |
| --- | --- |
| COCCc1nc2c(N)nc3ccccc3c2n1CCOCCN(C)S(C)(=O)=O [Example 3, N-(2-{2-[4-amino-2-(2-methoxyethyl)-1H-imidazo[4,5-c]quinolin-1-yl]ethoxy}ethyl)-N-methylmethanesulfonamide] | 0.01 µM |
| Cc1nc2c(N)nc3ccccc3c2n1CCCOCCOCCCNS(=O)(=O)c1cccc2c(N(C)C)cccc12 [Example 50, N-[10-(4-amino-2-methyl-1H-imidazo[4,5-c]quinolin-1-yl)-4,7-dioxadecyl]-5-dimethylaminonaphthalene-1-sulfonamide] | 1.11 µM |

Test system: tumor necrosis factor (α)
Assay: Cytokine Induction in Human Cells: tumor necrosis factor (α) by ELISA or IGEN assay
Assay type: cell-based
Set-up: key to Lowest Effective Concentration (μM) Tumor Necrosis Factor: *: no induction was seen at any of the tested concentrations; generally the highest concentration tested was 10 or 30 μM
Settings: human PBMC, 18 to 24 hours incubation, lowest concentration found to induce tumor necrosis factor
Description: as §1, §2, §3, §4, §5
Tumor necrosis factor (α) (TNF) concentration is determined using ELISA kits available from Biosource International, Camarillo, Calif. Alternately, the TNF concentration can be determined by Origen® M-Series Immunoassay and read on an IGEN M-8 analyzer from IGEN International, Gaithersburg, Md. The immunoassay uses a human TNF capture and detection antibody pair from Biosource International, Camarillo, Calif. Results are expressed in pg/mL.
as §6

| Compound | minimal effective concentration | Lowest Effective Concentration (μM) Tumor Necrosis Factor |
| --- | --- | --- |
| COCCc1nc2c(N)nc3ccccc3c2n1CCOCCN(C)S(C)(=O)=O [Example 3, N-(2-{2-[4-amino-2-(2-methoxyethyl)-1H-imidazo[4,5-c]quinolin-1-yl]ethoxy}ethyl)-N-methylmethanesulfonamide] | 0.12 µM |  |
| Cc1nc2c(N)nc3ccccc3c2n1CCCOCCOCCCNS(=O)(=O)c1cccc2c(N(C)C)cccc12 [Example 50, N-[10-(4-amino-2-methyl-1H-imidazo[4,5-c]quinolin-1-yl)-4,7-dioxadecyl]-5-dimethylaminonaphthalene-1-sulfonamide] |  | * |
